The melting point is the temperature of the solid-liquid transition.

The molecule `CCN(CC)CCOc1ccc(Nc2ncc3c(n2)N(C)C(=O)N(c2ccc(Cl)cc2Cl)C3)cc1` registered a melting point of 172 °C. With `COc1cc2c(=O)n(CCCN3CCOCC3)c3c4ccccc4[nH]c(=O)c3c2cc1OC` the figure was 250 to 252 °C; with `O=C(Nc1cccc2c(N=P(c3ccccc3)(c3ccccc3)c3ccccc3)ccnc12)c1c(Cl)cccc1Cl`, 276 to 281 °C; with `CCOC(=O)c1ccnnc1NC(=O)Cc1c(F)cc(F)cc1F`, 135 °C.

As for `CCCCOCCOc1ccc(-c2ccc3c(c2)C=C(C(=O)Nc2ccc([C@@H](O)c4ccccn4)cc2)CCN3C=O)cc1`, the melting point lay in the range of 110 to 112 °C. With `O=C(O)c1cn(C2CC2)c2cc(N3CCNCC3)c(F)c(F)c2c1=O` the figure was above 300 °C; with `CCc1c(C)[nH]c2cc(OCCN3CCOCC3)c(Cl)cc2c1=O`, 270 to 271 °C. With `CCOC(=O)c1cn(C)c2cnc3cc(F)c(N4CCC(O)(c5cccc(C(F)(F)F)c5)CC4)cc3c2c1=O` the figure was 262 °C; with `Cn1c(=O)cc(CCc2ccc(Cl)s2)c2cc(C(N)(c3ccc(Cl)cc3)c3cccnc3)ccc21` (stereo not drawn), 100 °C; with `O=C1c2cc(Cl)ccc2COc2ccccc21`, 82 to 83 °C. Next, `CCOC(=O)N1CCC(NC(=O)c2ccccc2)C12CCCCC2` (stereo not drawn): 132 to 133 °C; `Cc1cc(C)cc(C(Cl)=NNc2ccccc2)c1`: 47.5 to 48.5 °C; `COc1cc2c(cc1[N+](=O)[O-])C(C)CC1c3ccccc3CC1(C)C2` (stereo not drawn): 90 to 94 °C. In turn, `O=C(O)Cc1ccc2c(c1)CC(CCNS(=O)(=O)c1ccccc1)C2` (stereo not drawn) gave a melting point of 102 to 103 °C.

On to `O=C1CCSc2cc(Br)ccc21`, for which the melting point fell in the range of 55 to 57 °C. `O=C1NC(=O)C(=Cc2ccccc2)C(=O)N1` had a melting point above 258 °C.

Turning to `Cc1cnccc1CO`, the melting point fell in the range of 77 to 80 °C.

`COc1ccnc(CCc2nc3cc(-c4ccc(S(=O)(=O)Nc5ccccc5OC)cc4)cnc3[nH]2)c1` had a melting point of 215 to 216 °C. In the case of `ClCCCCc1nnnn1C1CCCCC1`, the melting point was 50 to 51 °C.

In turn, `CCc1cn([C@H]2C[C@H](OC(C)=O)[C@@H](/C=C/C(=O)Cc3c(Cl)cccc3Cl)O2)c(=O)[nH]c1=O` returned a melting point of 165 °C. `OC[C@@H](O)c1ccccc1Cl`: the melting point was 39 °C. Next, `O=C(O)C1=Cc2c(ccc(Cl)c2-c2ccccc2)OC1C(F)(F)F` (stereo not drawn): 229 to 231 °C; `C(=C\c1nc(COc2ccc(CCCCCn3ccnc3)cc2)co1)/c1ccccc1`: 101 to 102 °C; `COC(=O)c1c(C)cc2cc(OC)c(OC)cc2c1-c1ccnc(Cl)c1`: 133 to 136 °C. With `Cc1c(C)n(CCc2ccccc2)c(C)c(C(=O)Nc2ccccc2)c1=O` the figure was 191 to 193 °C.

Molecule `C=CC(C)ONC(=O)c1nc(-c2ccc(Cl)c(OC)c2F)cc(N)c1Cl` (stereo not drawn) came in with a melting point of 176 to 179 °C.

Molecule `CCOC(=O)NC[C@H]1CN(c2ccc3c(c2)CCCc2cnoc2-3)C(=O)O1` gave a melting point of 181 to 183 °C.

Regarding `O=C1c2cccc3cc4ccccc4c(c23)C(=O)N1CCN1CCCN(CCN2C(=O)c3cccc4cc5ccccc5c(c34)C2=O)C1`, the melting point was 222 °C. With `CC1COCc2nc3c(N)nc4cc(C=CC(=O)N5CCOCC5)ccc4c3n21` (stereo not drawn) the figure was above 250 °C. With `CCC(C)N1CCc2c(C(=O)O)nc3c(C#N)cnn3c21` (stereo not drawn) the figure was 191 to 192 °C; with `Clc1cc2nc3cc4ccccc4[nH]c-3c2cc1Br`, above 246 °C. Turning to `C#CCOCCn1cnc2cnc3ccccc3c21`, the melting point was 124 to 126 °C. Next, `Cc1nc(-n2ccc(OCc3ccc(C(F)(F)F)o3)cc2=O)sc1C(=O)NCc1cccnc1`: 240 to 242 °C.

The values are drawn from a melting point compilation (Tetko et al.; mined from patent text by program, amines drawn as free bases though some values may be those of a salt).
